These results are taken from US20050153951A1, “Neurotrophic pyrrolidines and piperidines, and related compositions and methods” (priority 1999, published 2005).

Assay [1] concerns Primary Rat Hippocampal Cells. The experiment in a line: Neurite outgrowth assay, primary rat hippocampal cells. It is filed as cell-based. The settings on record: MAP-2 immunofluorescence; active if greater than mean DMSO-treated control on the same plate. The protocol: Hippocampal cells are dissected from the brains of embryonic day 18 rat pups and dissociated with trypsin (1 mg/mL) and trituration. Cells are seeded at 30,000 cells/well in 96-well plates filled with 100 μL MEM and 10% FBS. At 7 days in culture, cells are fixed with 4% paraformaldehyde and immuno-fluorescence is performed.
(§1) Cultures are incubated with normal horse serum (1:50; Vector Labs) for about 20 min, rinsed and then incubated with primary antibody, microtubule associated-protein 2 (anti-mouse MAP-2; 1:1000; Chemicon) for about 2 h at about RT. Following primary antibody, cultures are rinsed and incubated with fluorescein anti-mouse IgG (rat absorbed; 1:50; Vector Labs) for about 1 h. After fluorescein incubation, the cultures are rinsed and read in PBS on a fluorescent plate reader (excitation: 485 nm; emission: 530 nm). […] The response to test compound is reported as percent of DMSO-treated control.

The test system of assay [2] is Human M17 Neuroblastoma Cells. Nature of the assay: Neurite outgrowth assay, M17 neuroblastoma cells. Type of assay: cell-based. The settings on record: MAP-2 immunofluorescence; active if greater than mean DMSO-treated control on the same plate. The protocol:
M17 human neuroblastoma cells are cultured in 1:1 ratio of EMEM and Hams's F12 with 1×NEM and 10% FBS. The culture media contains 1×PSN antibiotic and is exchanged every other day, and the cells are passed in log phase near confluence.
as §1

Assay [3] deals with Dorsal Root Ganglion (DRG). Nature of the assay: Dorsal Root Ganglion (DRG) culture, neurite outgrowth. Type of assay: cell-based, rat. More on the design: key: +: Positive results for each experiment; −: Negative results for each experiment. The settings on record: test compound 50-250 nM; neurite outgrowth examined days 1-5; positive if neurites of ≧1 diameter of the DRG; one symbol per experiment. As to the method:
DRG are dissected from newborn or 1-day-old CD rats and placed into PBS on ice. After rinsing twice with sterile plating medium, DRG are transferred to empty wells of a 6-well plate coated with polyornithine/laminin (Becton Dickinson Labware) using #7 curved forceps. Three ml/well of plating medium are then added very gently, so as not to disturb the DRG. Plating medium is Leibovitz's L-15 medium (Gibco), plus 0.6% glucose, 33 mM KCl, 10% FCS, 10 mM Hepes and penicillin/streptomycin/glutamine. After overnight incubation at about 37° C. in 5% CO2, this medium is replaced with 3 mL/well of assay medium [Leibovitz's L-15 medium plus 0.6% glucose, 1% FCS, 1% N-2 supplement (Gibco), 10 μM ara-C, 10 mM Hepes, and penicillin/streptomycin/glutamine] containing either vehicle (DMSO, 1/200,000), positive control (24 ng/mL NGF) or test compound (50-250 nM). All media are prepared fresh daily. DRG are microscopically examined for neurite outgrowth on days 1-5.

The test system of a further assay is facial nerve. The experiment in a line: Rat facial nerve compression model. It is filed as in vivo. The settings on record: p.o. about 20 mg/kg twice a day for 15 days; compared to vehicle and internal control; FIG. 1. As to the method:
In this model, compressing the facial nerve causes paralysis of the whisker muscle on that side of the face. The untreated facial nerve on the other side functions as an internal control. […] The whisker movement recovery rate on the paralyzed side compared to the vehicle and internal control is shown in this FIGURE.
Long-Evans rats are anesthetized under ketamine (60 mg/kg)/xylazine (6 mg/kg). The facial nerve is exposed and mechanically compressed with forceps near the stylomastoid foramen unilaterally with the opposite, non-lesioned side serving as an internal control. […] Rats received test compound p.o. at about 20 mg/kg twice a day for 15 days after the surgery. Control rats received vehicle only. Three to eight rats are tested in each group. Restoration of whisker movement after the treatment with compounds of the present invention is recorded at different post-operative time points daily, up to two weeks, and is shown in FIG. 1.

The test system of assay [4] is PC12 cells and sensory ganglia. The settings on record: cultures of PC12 cells and sensory ganglia; Lyons et al. 1994; cited from earlier work.

Molecules are shown by their SMILES. Where “and” joins values, the source holds several entries; their conditions need not be identical. Equal values may be shown once.

For `CCC(C)(C)C(=O)C(=O)N1CCCC1C(=O)NNC(=O)[C@H]1CCCN1C(=O)C(=O)C(C)(C)CC` (some centres unmarked) [Compound 63], in assay [1], the “Rat Hippocampal Cell Response” value is recorded as 110% of DMSO-treated control. Regarding `CCC(C)(C)C(=O)C(=O)N1CCC[C@H]1c1nc(C(=O)NCc2cccnc2)cs1` [Compound 14], the “M17 Cell Response” value in assay [2] was 112% of DMSO-treated control and 108% of DMSO-treated control. Also, the “Rat Hippocampal Cell Response” value in assay [1] is on record as 116% of DMSO-treated control. Consider `O=C(NCc1cccnc1)c1csc([C@@H]2CCCN2S(=O)(=O)Cc2ccccc2)n1` [Compound 13], for which the “M17 Cell Response” value in assay [2] is reported as 102% of DMSO-treated control. Besides, the DRG entry in assay [3] is “−”. Take `CCC(C)(C)C(=O)C(=O)N1CCC[C@H]1C(=O)NNC(=O)CCc1cccnc1` [Compound 32]: in assay [2], the “M17 Cell Response” value is recorded as 103% of DMSO-treated control. Turning to `CCC(C)(C)C(=O)C(=O)N1CSCC1c1nnc([C@@H]2CSCN2C(=O)C(=O)C(C)(C)CC)o1` (some centres unmarked) [Compound 58], the “Rat Hippocampal Cell Response” value in assay [1] is reported as 142% of DMSO-treated control. Same read-out and setting: then `O=C(C(=O)N1CCCC1c1nnc([C@@H]2CCCN2C(=O)C(=O)c2cccs2)o1)c1cccs1` (some centres unmarked) [Compound 48], with 113% of DMSO-treated control.

For `CCC(C)(C)C(=O)C(=O)N1CCC[C@H]1C(=O)NNC(=O)[C@@H]1CCCN1C(=O)C(=O)C(C)(C)CC` [Compound 24], the “M17 Cell Response” value in assay [2] is on record as 123% of DMSO-treated control. For the same compound, the DRG result in assay [3] is “+ and −”. For the same compound, the “Rat Hippocampal Cell Response” value in assay [1] was 119% of DMSO-treated control and 104% of DMSO-treated control and 108% of DMSO-treated control. Consider `CCC(C)(C)C(=O)C(=O)N1CCCC[C@H]1C(=O)NNC(=O)[C@@H]1CCCCN1C(=O)C(=O)C(C)(C)CC` [Compound 25], for which the “M17 Cell Response” value in assay [2] is 111% of DMSO-treated control. Further, the “Rat Hippocampal Cell Response” value in assay [1] is reported as 108% of DMSO-treated control. For `CCC(C)(C)C(=O)C(=O)N1CC[C@H]1C(=O)NNC(=O)[C@@H]1CCN1C(=O)C(=O)C(C)(C)CC` [Compound 26], the “Rat Hippocampal Cell Response” value in assay [1] is given as 133% of DMSO-treated control. For `CCC(C)(C)C(=O)C(=O)N1CCC[C@H]1C(=O)NNC(=O)CCc1cc(OC)c(OC)c(OC)c1` [Compound 34], in assay [2], the “M17 Cell Response” value is given as 106% of DMSO-treated control. In assay [1], the “Rat Hippocampal Cell Response” value was 113% of DMSO-treated control.

With `CCC(C)(C)C(=O)C(=O)N1CCC[C@H]1c1nnc(CCc2cccnc2)o1` [Compound 33], the “M17 Cell Response” value in assay [2] is recorded as 104% of DMSO-treated control. Besides, the “Rat Hippocampal Cell Response” value in assay [1] is 112% of DMSO-treated control. Regarding `CCC(C)(C)C(=O)C(=O)N1CCC[C@H]1c1nc(CCc2cccnc2)no1` [Compound 31], the “M17 Cell Response” value in assay [2] is 111% of DMSO-treated control. Further, the DRG entry in assay [3] was “+ and −”. Besides, the “Rat Hippocampal Cell Response” value in assay [1] is reported as 124% of DMSO-treated control. `CCC(C)(C)C(=O)C(=O)N1CCCCC1c1nnc([C@@H]2CCCCN2C(=O)C(=O)C(C)(C)CC)o1` (some centres unmarked) [Compound 44]: the “M17 Cell Response” value in assay [2] was 118% of DMSO-treated control. For the compound `O=C(NCc1cccnc1)c1ncoc1[C@@H]1CCCN1C(=O)OCc1ccccc1` [Compound 1], in assay [2], the “M17 Cell Response” value is given as 103% of DMSO-treated control. Moreover, the DRG entry in assay [3] is “−”. `CCC(C)(C)C(=O)C(=O)N1CCC[C@H]1C(=O)NNC(=O)[C@@H]1CCCN1C(=O)OCc1ccccc1` [Compound 50]: the “Rat Hippocampal Cell Response” value in assay [1] is 110% of DMSO-treated control. Take `CCC(C)(C)C(=O)C(=O)N1CCC[C@H]1c1nnc(-c2cccnc2)o1` [Compound 60]: in assay [1], the “Rat Hippocampal Cell Response” value is listed as 114% of DMSO-treated control. As to `CCC(C)(C)C(=O)C(=O)N1CCC[C@H]1c1nc(COc2cccnc2)cs1` [Compound 19], the “M17 Cell Response” value in assay [2] is given as 110% of DMSO-treated control. Also, the “Rat Hippocampal Cell Response” value in assay [1] is 109% of DMSO-treated control. Consider `O=C(OCc1cccnc1)c1ncoc1[C@@H]1CCCN1C(=O)OCc1ccccc1` [Compound 4], for which the “M17 Cell Response” value in assay [2] was 134% of DMSO-treated control and 111% of DMSO-treated control. Further, the DRG entry in assay [3] is reported as “+”. The “Rat Hippocampal Cell Response” value in assay [1] was 111% of DMSO-treated control and 123% of DMSO-treated control.

`CCC(C)(C)C(=O)C(=O)N1CCCC1c1nnc([C@@H]2CCCN2C(=O)C(=O)C(C)(C)CC)o1` (some centres unmarked) [Compound 30]: the “Restoration of whisker movement on the paralyzed side” value in the assay on facial nerve is recorded as “restored more rapidly”. Moreover, the “M17 Cell Response” value in assay [2] was 112% of DMSO-treated control and 103% of DMSO-treated control. In addition, the DRG result in assay [3] was “+, +, +, +, +”. Besides, the “Rat Hippocampal Cell Response” value in assay [1] is 161% of DMSO-treated control and 118% of DMSO-treated control and 130% of DMSO-treated control. Turning to `CCC(C)(C)C(=O)C(=O)N1CCCC[C@H]1c1nnc(CCc2cc(OC)c(OC)c(OC)c2)o1` [Compound 39], the “M17 Cell Response” value in assay [2] is 112% of DMSO-treated control. For the compound `CCC(C)(C)C(=O)C(=O)N1CCCC[C@H]1c1nnc(CCc2cccnc2)o1` [Compound 38], the “M17 Cell Response” value in assay [2] was 105% of DMSO-treated control. In addition, in assay [1], the “Rat Hippocampal Cell Response” value was 129% of DMSO-treated control. `CCC(C)(C)C(=O)C(=O)N1CCC[C@H]1c1nnc(C2CCCN2)o1` (some centres unmarked) [Compound 55]: in assay [1], the “Rat Hippocampal Cell Response” value was 116% of DMSO-treated control. With `O=C(NCc1cccnc1)c1csc([C@@H]2CCCN2C(=O)OCc2ccccc2)n1` [Compound 11], the DRG result in assay [3] is recorded as “+”.

Take `CCC(C)(C)C(=O)C(=O)N1CCC[C@H]1C(=O)NNC(=O)c1cccnc1` [Compound 59]: in assay [1], the “Rat Hippocampal Cell Response” value is recorded as 116% of DMSO-treated control. Regarding `O=C(NCc1cccnc1)c1ncoc1[C@@H]1CCCN1S(=O)(=O)Cc1ccccc1` [Compound 3], the DRG entry in assay [3] is “−”. `COC(=O)C(=O)N1CCCC1c1nnc([C@@H]2CCCN2C(=O)C(=O)OC)o1` (some centres unmarked) [Compound 51]: the “Rat Hippocampal Cell Response” value in assay [1] is listed as 107% of DMSO-treated control. Still for that read-out and setting: then `CCC(C)(C)C(=O)C(=O)N1CCC[C@@H]1c1nnc([C@H]2CCCN2C(=O)C(=O)C(C)(C)CC)o1` [Compound 64], with 122% of DMSO-treated control; and `COc1cc(C(=O)C(=O)N2CCCC2c2nnc([C@@H]3CCCN3C(=O)C(=O)c3cc(OC)c(OC)c(OC)c3)o2)cc(OC)c1OC` (some centres unmarked) [Compound 56], with 118% of DMSO-treated control and 116% of DMSO-treated control; and `CCC(C)(C)C(=O)C(=O)N1CCC1c1nnc([C@@H]2CCN2C(=O)C(=O)C(C)(C)CC)o1` (some centres unmarked) [Compound 52], with 110% of DMSO-treated control. Regarding `C=CC[C@@H]1/C=C(\C)C[C@H](C)C[C@H](OC)[C@H]2O[C@@](O)(C(=O)C(=O)N3CCCC[C@H]3C(=O)O[C@H](/C(C)=C/[C@@H]3CC[C@@H](O)[C@H](OC)C3)[C@H](C)[C@@H](O)CC1=O)[C@H](C)C[C@@H]2OC` [FK506], in assay [4], the neurotrophic activity entry is given as “shows neurotrophic activity”.

As for `CC(C)(C)C(=O)C(=O)N1CCCC1c1nnc([C@@H]2CCCN2C(=O)C(=O)C(C)(C)C)o1` (some centres unmarked) [Compound 62], the “Rat Hippocampal Cell Response” value in assay [1] is 120% of DMSO-treated control. With `CCC(C)(C)C(=O)C(=O)N1CCCC[C@H]1C(=O)NNC(=O)CCc1cc(OC)c(OC)c(OC)c1` [Compound 37], the “M17 Cell Response” value in assay [2] was 111% of DMSO-treated control. The “Rat Hippocampal Cell Response” value in assay [1] is recorded as 130% of DMSO-treated control. The corresponding values for `CCC(C)(C)C(=O)C(=O)N1CCC[C@H]1c1nnc(CCc2cc(OC)c(OC)c(OC)c2)o1` [Compound 35] are 106% of DMSO-treated control and 126% of DMSO-treated control. With `O=S(=O)(Cc1ccccc1)N1CCCC1c1nnc([C@@H]2CCCN2S(=O)(=O)Cc2ccccc2)o1` (some centres unmarked) [Compound 54], the “Rat Hippocampal Cell Response” value in assay [1] is 113% of DMSO-treated control.
